Experimental data taken from ChEMBL document CHEMBL4190285, “Borapetoside E, a Clerodane Diterpenoid Extracted from Tinospora crispa, Improves Hyperglycemia and Hyperlipidemia in High-Fat-Diet-Induced Type 2 Diabetes Mice” (J Nat Prod, 2017).
Active and inactive are the calls of the source. The calls are words filed in the database; no cut-off is given here.

How the values were obtained:
[1] = test system: Mus musculus; assay: Antihyperglycemic activity in high fat diet-induced obese C57BL/6J mouse assessed as reduction in blood glucose level at 200 mg/kg, ig administered as single dose; format: functional, organism-based
[2] = test system: Mus musculus; assay: Antihyperlipidemic activity in high fat diet-induced obese C57BL/6J mouse assessed as serum triglyceride levels at 200 mg/kg, ip administered twice daily for 2.5 days measured at 2 hrs post last dose (reference value: 1.31 +/- 0.48 mmol/L); format: functional
[3] = test system: Mus musculus; assay: Antihyperlipidemic activity in high fat diet-induced obese C57BL/6J mouse assessed as serum HDL-C levels at 200 mg/kg, ip administered twice daily for 2.5 days measured at 2 hrs post last dose (reference value: 1.82 +/- 0.58 mmol/L); format: functional
[4] = test system: Mus musculus; assay: Antihyperlipidemic activity in high fat diet-induced obese C57BL/6J mouse assessed as serum LDL-C levels at 200 mg/kg, ip administered twice daily for 2.5 days measured at 2 hrs post last dose (reference value: 2.54 +/- 0.87 mmol/L); format: functional
[5] = test system: Mus musculus; assay: Antihyperlipidemic activity in high fat diet-induced obese C57BL/6J mouse assessed as serum total cholesterol levels at 200 mg/kg, ip administered twice daily for 2.5 days measured at 2 hrs post last dose (reference value: 4.56 +/- 1.01 mmol/L); format: functional
[6] = test system: Mus musculus; assay: Antihyperglycemic activity in high fat diet-induced obese C57BL/6J mouse assessed as reduction in blood glucose level at 200 mg/kg, ig administered twice daily for 2.5 days measured up to 5 days post last dose; format: functional, organism-based
[7] = test system: Mus musculus; assay: Antihyperlipidemic activity in high fat diet-induced obese C57BL/6J mouse assessed as serum free fatty acid levels at 200 mg/kg, ip administered twice daily for 2.5 days measured at 2 hrs post last dose (reference value: 1.41 +/- 0.3 mmol/L); format: functional

## CN(C)C(=N)NC(=N)N [METFORMIN]
[1]
  Activity: Active
[2]
  Activity: 0.97 mmol/L
[3]
  Activity: 2.14 mmol/L
[4]
  Activity: 2.93 mmol/L
[5]
  Activity: 4.47 mmol/L
[6]
  Activity: Active
[7]
  Activity: 1.18 mmol/L
